Measurements reported in patent publication US8765777B2, “Compositions and methods of use for tyrosine kinase inhibitors to treat pathogenic infection” (priority 2008, dated 2014).
Entries after “also recorded” stand apart in the source; their conditions may differ.

Tests used:
[1] = test system: Abl-tyrosine family kinases; conditions: Shah et al. (2004) Science 305:399-401; cited from earlier work
EPEC (strain 2389/69) = assay: EPEC actin pedestal formation on 3T3 cells; type: cell-based, enteropathogenic E. coli
VV (strain WR) = type: cell-based, Vaccinia virus
VV [2] = type: cell-based, Vaccinia virus
VV [3] = conditions: 100 mg/kg/day via subcutaneous osmotic pump, 10^4 pfu VV intraperitoneally, four days post infection; FIG. 4
[4] = Tolerability of the drugs in uninfected mice
HIV-1 Bal = assay: p24 production of macrophages infected with HIV-1 Bal; type: cell-based
[5] = test system: VV extracellular enveloped virus (EEV); type: cell-based, Vaccinia virus
[6] = test system: Mycobacterium tuberculosis (TB); type: cell-based
GFP-VV = type: cell-based, Vaccinia virus
[7] = up to 100 mg/kg/day i.p., 10 day period

## Cc1nc(Nc2ncc(C(=O)Nc3c(C)cccc3Cl)s2)cc(N2CCN(CCO)CC2)n1 [BMS-354825, N-(2-chloro-6-methylphenyl)-2-(6-(4-(2-hydroxyethyl)piperazin-1-yl)-2-methylpryimidin-4-ylamino)thiazole-5-carboxamide]
[1]
  potency relative to STI-571: two-log increased potency

## CC(C)(C)n1nc(-c2ccc(Cl)cc2)c2c(N)ncnc21 [PP2]
EPEC (strain 2389/69); Abl−/−/Arg−/− cells
  pedestals in Abl−/−/Arg−/− cells: not
EPEC (strain 2389/69); concentrations up to 100 μM, the highest tested
  pedestal formation: without effect
VV (strain WR)
  concentrations that blocked actin tails: ≥ 25 µM

## Cc1ccc(NC(=O)c2ccc(CN3CCN(C)CC3)cc2)cc1Nc1nccc(-c2cccnc2)n1 [STI-571, 4-[(4-Methyl-1-piperazinyl)methyl]-N-[4-methyl-3-[[4-(3-pyridinyl)-2-pyrimidinyl]amino]-phenyl]benzamide methanesulfonate]
VV-WR
  plaque formation: did inhibit plaque formation
EPEC (strain 2389/69); 25 μM
  EPEC pedestal formation: did not
VV [2]
  amount of virus produced (viral replication): nearly equivalent amounts of virus
VV [3]
  reduction of viral load (copies of VV UDG gene per 250 ng DNA of ovary): 4-5 logs
[4]; 100 mg/kg/day, subcutaneously implanted osmotic pumps
  weight and other adverse effects in uninfected animals: no loss in weight or other adverse effects
[4]; intraperitoneal injection, up to 100 mg/kg/day in saline, up to 10 days
  tolerability: well tolerated
[4]; [7]
  pathology upon necropsy with drug alone: no overt pathology
  weight loss with drug alone: no indication of weight loss
HIV-1 Bal; Cells + HIV-1 Bal + drug 1 μM, HIV-1 Bal alone 322 +/− 28
  P24 day 7: 287 ± 31 pg/mL
HIV-1 Bal; Cells + HIV-1 Bal + drug 1 μM, HIV-1 Bal alone 956 +/− 34
  P24 day 14: 744 ± 27 pg/mL
HIV-1 Bal; Cells + HIV-1 Bal + drug 5 μM
  P24 day 7: 212 ± 44 pg/mL
  P24 day 14: 556 ± 28 pg/mL
HIV-1 Bal; Cells + HIV-1 Bal + drug 10 μM
  P24 day 7: 127 ± 22 pg/mL
  P24 day 14: 245 ± 31 pg/mL
HIV-1 Bal; Cells + drug 1 μM, no virus
  P24 day 7: <10 pg/mL
  P24 day 14: <10 pg/mL
HIV-1 Bal; Cells + drug 5 μM, no virus
  P24 day 7: <10 pg/mL
  P24 day 14: <10 pg/mL
HIV-1 Bal; Cells + drug 10 μM, no virus
  P24 day 7: <10 pg/mL
  P24 day 14: <10 pg/mL
HIV-1 Bal; dose dependent, 1-10 μM
  reduction of viral replication (p24 levels): up to 4 fold
[5]
  formation of comets apposed to plaques: blocked the formation
  reduction in PFU of supernatant on BSC-40 cells: ~2 fold
[6]
  intercellular survival of M. tuberculosis: increases the intercellular survival
VV (strain WR)
  actin tail formation: did not block actin tail formation
  average number of actin tails per cell: ~3 per cell
  cells having no actin tails: 30%
  number of actin tails per cell: no detectable effects
  reduction of average number of actin tails per cell: 16 fold
  viral replication (extranuclear DAPI staining) and transit of GFP-labeled virions to the cell periphery: no effect
VV (strain WR); methanesulfonate
  VV actin motility, actin tail formation or number: no discernable effect; also recorded: no difference in actin tail formation or number was evident

## Cc1ccc(NC(=O)c2ccc(CN3CCN(Cc4ccccc4)CC3)cc2)cc1Nc1nccc(-c2cccnc2)n1 [STI-X]
GFP-VV
  actin tail formation: failed to form actin tails
  percentage of cells containing DAPI-stained extranuclear viral replication factories: 4%
  replication centers (DAPI staining or α-Ptyr pAb) and actin motility: still evident; also recorded: no effect
  viral entry (GFP-labeled virions and EVP staining): little detectable effect on viral entry
VV-WR
  plaque formation: reduced
  tolerability by the cells in plaque assays: well tolerated
